Laboratory results reported in paper PMC10496295, “In vitro cytotoxic effect of stigmasterol derivatives against breast cancer cells” (BMC Complementary Medicine and Therapies, 2023).
Where two headings read alike, the source gives them in different places.

Key:
[1] = tested on: HCC70 triple negative breast cancer cell line; test: resazurin cytotoxicity assay, HCC70 cells; format: cell-based; details: for EC50: Homo sapiens; for SI (selectivity index), HCC70: EC50 against MCF12A cells ÷ EC50 against HCC70 cells
[2] = tested on: MCF-12 A non-tumorigenic breast epithelial cell line; test: resazurin cytotoxicity assay, MCF-12 A cells; format: cell-based; details: Homo sapiens
[3] = tested on: MCF-7 hormone receptor-positive breast cancer cell line; test: resazurin cytotoxicity assay, MCF-7 cells; format: cell-based; details: for SI (selectivity index), MCF-7: EC50 against MCF12A cells ÷ EC50 against MCF-7 cells; for EC50: Homo sapiens
[4] = tested on: U937 human monocytic cell line; set-up: method as in PMID 20828195; details: cited from earlier work; for reduction in cell viability / level of cell death compared to the untreated control: p < 0.05; for level of cell death compared to the untreated control: FDA/EtBr staining
[5] = tested on: human ovarian cancer cells ES2; set-up: method as in PMID 32481565; details: treatment concentration 20 µg/mL; cited from earlier work
[6] = tested on: human breast cancer MCF-7 cell line; set-up: method as in PMID 33839518; details: read-out: IC50 against MCF-7 cell line; cited from earlier work
[7] = tested on: human ovarian cancer cells OV90; set-up: method as in PMID 32481565; details: treatment concentration 20 µg/mL; cited from earlier work
[8] = tested on: human gastric cancer cell line SNU-1; details: read-out: IC50, SNU-1 proliferation; cited from earlier work
[9] = tested on: oxidative burst of the whole blood; set-up: method as in PMID 23136063; details: cited from earlier work
[10] = HCC70 cells, 96 h treatment, resazurin assay, read-out: EC50 and Standard deviation, HCC70
[11] = MCF-12 A cells, 96 h treatment, resazurin assay, read-out: EC50 and Standard deviation, MCF-12 A
[12] = MCF7, MCF-7 cells, 96 h treatment, resazurin assay, read-out: EC50 and Standard deviation, MCF-7
[13] = HCC70, 96 h, read-out: EC50 and Standard deviation, HCC70, HCC70 cells, 96 h treatment, resazurin assay
[14] = MCF-12A, 96 h, read-out: EC50 and Standard deviation, MCF-12 A, MCF-12 A cells, 96 h treatment, resazurin assay
[15] = MCF7, 96 h, read-out: EC50 and Standard deviation, MCF-7, MCF-7 cells, 96 h treatment, resazurin assay

With `CC[C@@H](C(C)C)C(O)C(O)[C@@H](C)[C@H]1CC[C@H]2[C@@H]3CC(O)C4(O)C[C@@H](O)CC[C@]4(C)[C@H]3CC[C@]12C` (stereo partly drawn) [Compound 6, Stigmastane-3β,5,6,22,23-pentol] the EC50 [1, 10] was 16800 ± 1170 nM, the EC50 [2, 11] was 22600 ± 1220 nM and the “SI (selectivity index), MCF-7” value [3] was 0.51. It also gave an EC50 [3, 12] of 44100 ± 1400 nM and a melting point of 201 to 204 °C.

For `CC[C@@H](C(C)C)C(O)C(O)[C@@H](C)C1CCC2C3C(=O)C(O)C4(O)CC(=O)CC[C@]4(C)C3CC[C@@]21C` (stereo partly drawn) [Compound 8, Stigmasta-3,7-dion-5,6,22,23-ol], the EC50 [1, 10] was 53200 ± 1060 nM, the EC50 [2, 11] was > 250000 nM and the EC50 [3, 12] was > 250000 nM. The melting point was 183 to 187 °C.

For `CC[C@H](C=C[C@@H](C)[C@H]1CC[C@H]2[C@@H]3CC4OC45C[C@@H](O)CC[C@]5(C)[C@H]3CC[C@]12C)C(C)C` (stereo partly drawn) [Compound 4, 5,6-Epoxystigmast-22-en-3β-ol], the “SI (selectivity index), HCC70” value [1] was 0.28, the EC50 [1, 10] was 165700 ± 1300 nM and the EC50 [2, 11] was 47000 ± 1180 nM. For the same compound, the EC50 [3, 12] was 21900 ± 1320 nM and the melting point was 142 to 145 °C.

In the case of `CC[C@@H](C(C)C)C(O)C(O)[C@@H](C)C1CCC2C3CC4OC45C[C@@H](O)CC[C@]5(C)C3CC[C@@]21C` (stereo partly drawn) [Compound 5, 5,6-Epoxystigmasta-3β,22,23-triol], the “SI (selectivity index), HCC70” value [1] is reported as 0.90, the EC50 [1, 10] is reported as 33700 ± 1330 nM and the EC50 [2, 11] is reported as 30200 ± 1280 nM. For the same compound, the “SI (selectivity index), MCF-7” value [3] was 0.69, the EC50 [3, 12] was 44000 ± 1400 nM and the “reduction in cell viability” value ([4]; U937 cells, 60 and 120 µM) was “significantly reduced cell viability”. For the same compound, the “level of cell death compared to the untreated control” value ([4]; U937 cells) was “significant” and the “mode of cell death” value ([4]; U937 cells, staining with Hoechst 33,342) was “apoptosis”.

For `CC[C@H](/C=C/[C@@H](C)C1CCC2C3CC=C4C[C@@H](OC(C)=O)CC[C@]4(C)C3CC[C@@]21C)C(C)C` (stereo partly drawn) [Compound 2, Stigmasterol acetate], the EC50 [1, 13] was > 250000 nM, the EC50 [2, 14] was > 250000 nM and the EC50 [3, 15] was > 250000 nM. The melting point was 139 to 141 °C.

With `CC[C@@H](C(C)C)C(O)C(O)[C@@H](C)[C@H]1CC[C@H]2[C@@H]3C(=O)C=C4CC(=O)CC[C@]4(C)[C@H]3CC[C@]12C` (stereo partly drawn) [Compound 7, Stigmasta-5-en-3,7-dion-22,23-diol] the “SI (selectivity index), HCC70” value [1] was 0.19, the EC50 [1, 10] was 170100 ± 1180 nM and the EC50 [2, 11] was 31600 ± 1120 nM. The “SI (selectivity index), MCF-7” value [3] was 1.36, the EC50 [3, 12] was 23200 ± 1080 nM and the melting point was 137 to 140 °C.

For `CC[C@H](C=C[C@@H](C)[C@H]1CC[C@H]2[C@@H]3CC=C4C[C@@H](O)CC[C@]4(C)[C@H]3CC[C@]12C)C(C)C` [Compound 1, stigmasta-5,22-dien-3β-ol], the “reduction of growth of ES2 cells” value [5] is listed as 50%, the EC50 [1, 13] is listed as > 250000 nM and the IC50 [6] is listed as 0.162 µM. For the same compound, the EC50 [2, 14] was > 250000 nM, the “reduction of growth of OV90 cells” value [7] was 50% and the IC50 [8] was 15 µM. For the same compound, the EC50 [3, 15] was > 250000 nM.

In the case of `CC(C)Cc1ccc(C(C)C(=O)O)cc1` (stereo not drawn) [ibuprofen, reference compound], the IC50 [9] is listed as 12.1 µM.

In the case of `N.N.[Cl][Pt][Cl]` [cisplatin, reference compound], the IC50 [6] is listed as 13.2 µM.

With `CC[C@@]1(O)C(=O)OCc2c1cc1n(c2=O)Cc2cc3ccccc3nc2-1` [Camptothecin, reference compound] the “SI (selectivity index), HCC70” value [1] was 1.25, the EC50 ([1]; HCC70 cells, 96 h, resazurin assay, positive control, row unit nM, read-out: EC50 and Standard deviation, HCC70) was 83.2 ± 1.08 nM and the EC50 ([2]; MCF-12 A cells, 96 h, resazurin assay, positive control, row unit nM, read-out: EC50 and Standard deviation, MCF-12 A) was 104.2 ± 1.03 nM. For the same compound, the “SI (selectivity index), MCF-7” value [3] was 1.00 and the EC50 ([3]; MCF7, MCF-7 cells, 96 h, resazurin assay, positive control, row unit nM, read-out: EC50 and Standard deviation, MCF-7) was 104 ± 9.92 nM.

With `CC[C@H](C=C[C@@H](C)[C@H]1CC[C@H]2[C@@H]3C(=O)C=C4CC(=O)CC[C@]4(C)[C@H]3CC[C@]12C)C(C)C` [Compound 3, Stigmasta-5,22-dien-3,7-dione] the “SI (selectivity index), HCC70” value [1] was 0.45, the EC50 [1, 10] was 67700 ± 1260 nM and the EC50 [2, 11] was 30200 ± 1240 nM. The “SI (selectivity index), MCF-7” value [3] was 0.70, the EC50 [3, 12] was 42800 ± 1320 nM and the IC50 [9] was 15.6 ± 2.1 µM. The melting point was 152 to 155 °C.

For `CC[C@@H](C(C)C)C(O)C(O)[C@@H](C)[C@H]1CC[C@H]2[C@@H]3CC=C4C[C@@H](O)CC[C@]4(C)[C@H]3CC[C@]12C` (stereo partly drawn) [Compound 9, Stigmast-5-ene-3β,22,23-triol], the “SI (selectivity index), HCC70” value [1] was 1.16, the EC50 [1, 10] was 44500 ± 1130 nM and the EC50 [2, 11] was 51800 ± 1130 nM. The EC50 [3, 12] was 22900 ± 1090 nM, the “reduction in cell viability” value ([4]; U937 cells, 30, 60 and 120 µM) was “significant reduction” and the “level of cell death compared to the untreated control” value ([4]; U937 cells) was “significant”. For the same compound, the cell viability ([4]; U937 cells, highest concentration 120 µM) was 52.3%.
